Holding throughout (type): cell-based, human
In one data set the test system is KB cells. Description: Cell viability assay (CellTiter-Blue), KB cells. The settings on record: 7 × 10^3 cells per well, folic acid-depleted RPMI-1640 + 10% FBS, 1% DMSO, 24 h at 37 °C, then CellTiter-Blue 4 h, three biological replicates fitted in Origin, standard error in brackets. As to the method: (§1) KB and MCF7 cells were kindly gifted by Prof. Arwyn T. Jones (Cardiff University), HEK293 cells were purchased from Public Health England, and SK-OV-3 cells were purchased from National Collection of Authenticated Cell Cultures (https://cell-bank.org.cn/). Cells were routinely tested for mycoplasma infection. KB and SK-OV-3 cells were maintained in T75 flasks at 37 °C in a 5% CO2 atmosphere in folic acid-depleted Roswell Park Memorial Institute (RPMI)-1640 medium supplemented with 10% (v/v) fetal bovine serum (FBS). MCF7 and HEK293 cells were maintained in T75 flasks at 37 °C in a 5% CO2 atmosphere in Dulbecco’s Modified Eagle’s medium (DMEM) supplemented with 10% (v/v) FBS. Cells were maintained at a sub-confluent monolayer and split at 80–85% confluency. For splitting, cells were washed with PBS, trypsinized in 1 mL of trypsin, and 200 µL of the 1000 µL trypsin cell suspension was re-suspended in 12 mL fresh DMEM containing 10% (v/v) FBS in a new T75 flask. KB and SK-OV-3 cells were used for biological experiments after being maintained for at least 10 days in folic acid-depleted RPMI-1640 medium.
(§2) SK-OV-3, MCF7, and HEK293 cells were seeded at a density of 2 × 10^4 cells per well in a Nunc™ MicroWell™ 96-well plate and grown at 37 °C in a 5% CO2 atmosphere in DMEM supplemented with 10% (v/v) FBS for 24 h. KB cells were seeded at a density of 7 × 10^3 cells per well in a 96-well plate and grown at 37 °C in a 5% CO2 atmosphere in folic acid-depleted RPMI-1640 medium supplemented with 10% (v/v) FBS for 24 h. Stock solutions of compounds 2–6 and 11–13 were obtained by dissolving the compounds in sterile deionized water. Compounds 1, and 7–10 were dissolved in pure DMSO. The stock solutions were diluted into the proper medium (according to the cell line tested) supplemented with 10% FBS to the appropriate concentration, and cells in each well were incubated with 100 µL of the solution. The solutions in each well were then adjusted to a concentration of 1% (v/v) DMSO. After 24 h at 37 °C, 20 µL of CellTiter-Blue™ was added to each well. The plate was incubated for another 4 h at 37 °C before analysis on a Perkin Elmer Victor X plate reader (excitation 531 nm; emission 595 nm). Each data point was calculated from a minimum of nine values resulting from three biological replicates (i.e., cells split from three different passages); each biological replicate is calculated from three technical replicates (i.e., cells split from the same passage). Value from media-only with CellTiter-Blue™ was set at 0% viability. This value was then subtracted from the values from cell-only (i.e., non-treated) wells with CellTiter-Blue™ in each biological replicate and set as 100% viability. For treatments of Cy3-containing compounds, blanks were generated with cell-free wells containing the compounds incubated for 24 h before addition of CellTiter-Blue™. The fluorescent reading for these wells was deducted from the treatment readings. Dose-response fitting curves were generated using Origin, version 2019b, OriginLab Corporation, Northampton, MA, USA (Figures S21–S24, Supplementary Materials).
(§3) Comparison of cytotoxicity fitting curves was achieved by applying the extra sum-of-squares F test, performed using GraphPad Prism version 9 for Windows, GraphPad Software, La Jolla, California, USA (https://www.graphpad.com/). […] Statistical analysis on the flow cytometry data was achieved by applying the unpaired two-tailed t-test test, performed using GraphPad Prism version 9 for Windows, GraphPad Software, La Jolla California USA, USA (https://www.graphpad.com/).
(§4) Cytotoxicity of 1–13 was evaluated using the CellTiter-Blue assay on KB, MCF7, SK-OV-3, and HEK293 cells. KB cells are derived from human cervical cancer, while SK-OV-3 cells are derived from human ovarian cancer. […] This feature is of particular relevance in anticancer applications, as it can be exploited for selective targeting and delivery. […]

In the next data set the test system is SK-OV-3 cells. Description: Cell viability assay (CellTiter-Blue), SK-OV-3 cells. The conditions noted are these: 2 × 10^4 cells per well, medium + 10% FBS, 1% DMSO, 24 h at 37 °C, then CellTiter-Blue 4 h, three biological replicates fitted in Origin, standard error in brackets. On the procedure: as §1, §2, §3, §4
In a further data set the test system is MCF7 cells. Description: Cell viability assay (CellTiter-Blue), MCF7 cells. The settings on record: MCF7 cells, 2 × 10^4 cells per well, DMEM + 10% FBS, 1% DMSO, 24 h at 37 °C, then CellTiter-Blue 4 h; three biological replicates fitted in Origin, standard error in brackets. As to the method:
as §1, §2, §3, §4
Background: The colour change of resazurin is a common sign of viable cells or microbes.

In a further data set the test system is HEK293 cells. As to the kind of experiment: Cell viability assay (CellTiter-Blue), HEK293 cells. The conditions noted are these: 2 × 10^4 cells per well, DMEM + 10% FBS, 1% DMSO, 24 h at 37 °C, then CellTiter-Blue 4 h, three biological replicates fitted in Origin, standard error in brackets. On the procedure: as §1, §2, §3, §4
Data set [1] concerns KB, MCF7, SK-OV-3, and HEK293 cells. As to the kind of experiment: Cell viability assay (CellTiter-Blue), statements over all tested cell lines. The conditions noted are these: folate receptor α-high KB and SK-OV-3 versus MCF7 and HEK293. As to the method: as §2, §3
Cytotoxicity of 1–13 was evaluated using the CellTiter-Blue assay on KB, MCF7, SK-OV-3, and HEK293 cells. KB cells are derived from human cervical cancer, while SK-OV-3 cells are derived from human ovarian cancer. […] This feature is of particular relevance in anticancer applications, as it can be exploited for selective targeting and delivery. MCF7 is a cell line derived from human breast cancer with low levels of folate receptor α [27]. Therefore, it can serve as the negative control for folate receptor α mediated tumor-targeted drug delivery systems. HEK293 is a non-cancer cell line and was chosen to evaluate the specificity of the tested compounds toward cancer cells.

Where a SMILES comes first, the peptide text is derived from it. Side-chain parts run from the residue outwards. [ ]: non-standard residue; d: D form. The star is where a group is joined. Pteroyl = Nc1nc2ncc(CNc3ccc(C(=O)*)cc3)nc2c(=O)[nH]1; Cha = N[C@@H](CC1CCCCC1)C(=O)O; dCha = N[C@H](CC1CCCCC1)C(=O)O

In the case of `CC(=O)N[C@@H](CCCCNC(=O)[C@H](CCC(=O)O)NC(=O)c1ccc(NCc2cnc3nc(N)nc(O)c3n2)cc1)C(=O)N[C@H](CCCCN)C(=O)N[C@H](CC(C)C)C(=O)N[C@H](C)C(=O)N[C@H](CCCCN)C(=O)N[C@H](CC(C)C)C(=O)N[C@H](C)C(=O)N[C@H](CCCCN)C(=O)N[C@H](CCCCN)C(=O)N[C@H](CC(C)C)C(=O)N[C@H](C)C(=O)N[C@H](CCCCN)C(=O)N[C@H](CC(C)C)C(=O)N[C@H](C)C(=O)N[C@H](CCCCN)C(N)=O` [Compound 12], the EC50 (usually the concentration at which the effect is half-maximal) with KB cells was 151 µM; with SK-OV-3 cells, 388 µM; in the data set with MCF7 cells it was above 400 µM; with HEK293 cells it was above 400 µM. Moreover, the “Selectivity of cytotoxicity between cell lines, in words” value in data set [1] was “enhanced toxicity in KB but not in SK-OV-3 cells when compared to MCF7 and HEK293 cells”.
In the case of `CC(=O)N[C@@H](CCCCNC(=O)[C@H](CCC(=O)O)NC(=O)c1ccc(NCc2cnc3nc(N)nc(O)c3n2)cc1)C(=O)N[C@H](CCCCN)C(=O)N[C@H](CC1CCCCC1)C(=O)N[C@H](C)C(=O)N[C@H](CCCCN)C(=O)N[C@@H](CC1CCCCC1)C(=O)N[C@H](C)C(=O)N[C@H](CCCCN)C(=O)N[C@H](CCCCN)C(=O)N[C@@H](CC1CCCCC1)C(=O)N[C@H](C)C(=O)N[C@H](CCCCN)C(=O)N[C@H](CC1CCCCC1)C(=O)N[C@H](C)C(=O)N[C@H](CCCCN)C(N)=O` [Compound 13] (Ac-K([Glu-Pteroyl])[dK][dCha][dA][dK][Cha][dA][dK][dK][Cha][dA][dK][dCha][dA][dK]-NH2), the 50% effective concentration (EC50) was 9.8 µM with KB cells, 41.5 µM in the data set with SK-OV-3 cells, 26.9 µM in the data set on MCF7 cells and 20.4 µM with HEK293 cells. Besides, the “Selectivity of cytotoxicity between cell lines, in words” value in data set [1] is given as “significantly higher”.

Source of the values: publication PMC9138991, “Effect of Trimethine Cyanine Dye- and Folate-Conjugation on the In Vitro Biological Activity of Proapoptotic Peptides” (Biomolecules, 2022).
